Values joined by “and” are separate entries in the source; they are usually repeats but may differ in a detail not shown here. Equal entries are not always repeated. “Also recorded” adds a separate entry of the source. Where two headings read alike, the source gives them in different places. One block for each molecule: values may come before it.
How the values were obtained:
GRK6 = GRK6 (Homo sapiens, UniProt P43250); experiment: Kinome panel, GRK6; type: biochemical; conditions: tested at 1 μM
Chain of GRK6 (P43250 whole entry, species assumed): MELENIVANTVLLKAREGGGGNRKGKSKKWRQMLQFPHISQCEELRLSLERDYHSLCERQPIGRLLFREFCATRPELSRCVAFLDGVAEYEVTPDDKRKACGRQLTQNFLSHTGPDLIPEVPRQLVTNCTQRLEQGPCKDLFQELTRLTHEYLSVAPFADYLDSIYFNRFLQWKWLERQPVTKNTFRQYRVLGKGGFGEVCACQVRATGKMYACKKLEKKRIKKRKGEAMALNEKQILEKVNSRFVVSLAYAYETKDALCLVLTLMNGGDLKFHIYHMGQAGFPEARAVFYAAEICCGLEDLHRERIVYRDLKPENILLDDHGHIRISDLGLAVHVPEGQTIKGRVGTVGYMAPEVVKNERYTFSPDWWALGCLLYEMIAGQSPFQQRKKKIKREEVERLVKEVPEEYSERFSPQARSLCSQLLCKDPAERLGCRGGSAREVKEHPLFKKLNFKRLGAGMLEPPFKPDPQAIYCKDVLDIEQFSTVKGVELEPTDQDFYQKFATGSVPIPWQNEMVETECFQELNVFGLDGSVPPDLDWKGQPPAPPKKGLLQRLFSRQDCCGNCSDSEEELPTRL

bovine GRK2 = biological target: T1, bovine GRK2 (Bos taurus, UniProt P21146); experiment: radiometric GRK2 inhibition assay (tubulin phosphorylation)
T1 sequence (P21146 1-689): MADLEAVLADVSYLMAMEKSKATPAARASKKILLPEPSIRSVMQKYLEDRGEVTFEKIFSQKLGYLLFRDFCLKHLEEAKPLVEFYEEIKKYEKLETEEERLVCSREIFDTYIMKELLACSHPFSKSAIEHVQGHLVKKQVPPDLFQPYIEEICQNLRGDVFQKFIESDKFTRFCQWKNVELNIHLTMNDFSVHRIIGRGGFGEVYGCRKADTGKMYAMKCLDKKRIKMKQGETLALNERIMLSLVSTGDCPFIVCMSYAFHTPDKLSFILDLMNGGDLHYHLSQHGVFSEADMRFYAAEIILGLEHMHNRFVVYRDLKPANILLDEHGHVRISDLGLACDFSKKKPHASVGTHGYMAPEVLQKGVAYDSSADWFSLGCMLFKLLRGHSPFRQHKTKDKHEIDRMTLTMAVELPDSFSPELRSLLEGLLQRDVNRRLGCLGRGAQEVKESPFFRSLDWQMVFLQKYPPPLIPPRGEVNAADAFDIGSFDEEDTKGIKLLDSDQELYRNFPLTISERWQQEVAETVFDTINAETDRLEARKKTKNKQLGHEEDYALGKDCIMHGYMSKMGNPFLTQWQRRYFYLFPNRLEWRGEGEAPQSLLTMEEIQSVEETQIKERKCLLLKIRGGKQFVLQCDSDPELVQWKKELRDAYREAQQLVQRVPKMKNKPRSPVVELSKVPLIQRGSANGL

FGFR1/2 = experiment: Kinome panel, FGFR1/2; type: biochemical; conditions: tested at 1 μM
EGFR = EGFR (Homo sapiens, UniProt P00533); experiment: Kinome panel, EGFR; type: biochemical; conditions: tested at 1 μM
Chain of EGFR (P00533 25-1210, species assumed): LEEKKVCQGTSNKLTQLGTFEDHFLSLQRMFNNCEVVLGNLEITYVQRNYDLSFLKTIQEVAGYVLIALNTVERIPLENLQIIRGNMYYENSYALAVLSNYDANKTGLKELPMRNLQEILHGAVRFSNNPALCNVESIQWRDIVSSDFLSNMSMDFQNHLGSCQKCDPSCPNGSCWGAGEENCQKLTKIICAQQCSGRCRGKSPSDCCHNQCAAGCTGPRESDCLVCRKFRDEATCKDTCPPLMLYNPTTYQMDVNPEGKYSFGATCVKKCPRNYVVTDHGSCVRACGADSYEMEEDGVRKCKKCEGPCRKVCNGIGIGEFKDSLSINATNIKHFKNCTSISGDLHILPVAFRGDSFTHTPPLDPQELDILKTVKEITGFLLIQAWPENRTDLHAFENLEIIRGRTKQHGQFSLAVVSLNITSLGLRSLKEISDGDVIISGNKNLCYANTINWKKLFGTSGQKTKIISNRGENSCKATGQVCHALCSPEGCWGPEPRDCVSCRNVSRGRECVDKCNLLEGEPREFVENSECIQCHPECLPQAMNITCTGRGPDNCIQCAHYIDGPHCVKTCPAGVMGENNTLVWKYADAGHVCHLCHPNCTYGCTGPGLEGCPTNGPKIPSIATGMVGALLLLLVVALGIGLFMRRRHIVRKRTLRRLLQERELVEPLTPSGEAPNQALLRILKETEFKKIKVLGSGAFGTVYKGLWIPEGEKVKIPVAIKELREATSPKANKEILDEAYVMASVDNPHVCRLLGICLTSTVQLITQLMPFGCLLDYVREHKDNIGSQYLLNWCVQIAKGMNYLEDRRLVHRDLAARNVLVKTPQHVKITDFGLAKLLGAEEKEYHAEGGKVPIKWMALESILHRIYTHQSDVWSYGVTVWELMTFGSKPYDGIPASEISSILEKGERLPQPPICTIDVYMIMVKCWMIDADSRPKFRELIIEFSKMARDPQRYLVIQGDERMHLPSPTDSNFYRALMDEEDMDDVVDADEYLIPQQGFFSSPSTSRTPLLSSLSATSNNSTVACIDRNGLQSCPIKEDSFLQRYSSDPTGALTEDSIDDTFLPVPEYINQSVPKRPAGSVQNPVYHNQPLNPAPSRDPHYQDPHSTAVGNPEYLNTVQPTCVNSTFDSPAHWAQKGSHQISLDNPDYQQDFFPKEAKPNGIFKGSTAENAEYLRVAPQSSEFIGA

PDGFR = experiment: Kinome panel, PDGFR; type: biochemical; conditions: tested at 1 μM
GRK5 (Cys474) = GRK5 (Cys474) (Homo sapiens, UniProt P34947); experiment: Intact protein MS, covalent labelling of GRK5; type: binding
Chain of GRK5 (Cys474) (P34947 whole entry): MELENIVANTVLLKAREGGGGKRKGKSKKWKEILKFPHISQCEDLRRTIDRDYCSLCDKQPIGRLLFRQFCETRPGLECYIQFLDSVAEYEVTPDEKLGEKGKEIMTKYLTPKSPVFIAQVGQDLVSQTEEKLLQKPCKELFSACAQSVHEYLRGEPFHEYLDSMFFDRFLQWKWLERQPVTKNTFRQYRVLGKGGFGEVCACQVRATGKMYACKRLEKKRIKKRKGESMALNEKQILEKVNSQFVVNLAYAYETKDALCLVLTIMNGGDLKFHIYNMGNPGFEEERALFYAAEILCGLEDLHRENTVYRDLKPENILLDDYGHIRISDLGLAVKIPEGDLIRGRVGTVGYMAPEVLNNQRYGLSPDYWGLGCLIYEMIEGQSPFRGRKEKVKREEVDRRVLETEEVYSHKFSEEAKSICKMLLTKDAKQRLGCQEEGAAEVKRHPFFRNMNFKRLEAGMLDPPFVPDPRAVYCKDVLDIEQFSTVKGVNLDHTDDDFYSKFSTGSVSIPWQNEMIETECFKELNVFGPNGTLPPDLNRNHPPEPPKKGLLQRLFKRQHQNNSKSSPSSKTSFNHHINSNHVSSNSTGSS

GRK5 [1] = biological target: T2, GRK5 (Homo sapiens, UniProt P34947); experiment: radiometric GRK5 inhibition assay (tubulin phosphorylation); conditions: for IC50: read-out: GRK5 IC50
Target sequence in this assay (P34947 whole entry): as above

GRK5 [2] = biological target: T2, GRK5; experiment: Kinome panel, GRK5; type: biochemical; conditions: tested at 1 μM
Target sequence in this assay (P34947 whole entry, species assumed): as the sequence (P34947 whole entry) above

PKA = PKA (Homo sapiens, UniProt P17612); experiment: PKA inhibition assay (ADP-Glo); type: biochemical
Method: The PKA inhibition assays were performed with the ADP-Glo system (Promega Corporation) according to the manufactory's instruction. […] After the initial reaction, ADP-Glo reagent was added to the reaction and allowed to incubate for an additional 40 min. Lastly, the kinase detection reagent was added and allowed to incubate for 30 min, and the luminescence was measured with a FlexStation 3 Multi-mode Microplate Reader (Molecular Devices). All data was analyzed in the same way as GRK inhibition assay. Experiments were performed three times in duplicate.
Standard control compounds are run during each assay to assess consistency across time, experimenters, and subtle changes in assay conditions that are sometimes required to keep some of the compounds soluble and disperse (such as through addition of DDM or 3% DMSO). Paroxetine were used as controls for GRK2 and PKA, and CCG215022 for GRK5.

kinome = experiment: Kinome-wide selectivity panel; type: biochemical; conditions: tested at 10 nM, in relation to 100 nM and 1 μM panels
KIT = KIT (Homo sapiens, UniProt P10721); experiment: Kinome panel, KIT; type: biochemical; conditions: tested at 1 μM
Chain of KIT (P10721 26-976, species assumed): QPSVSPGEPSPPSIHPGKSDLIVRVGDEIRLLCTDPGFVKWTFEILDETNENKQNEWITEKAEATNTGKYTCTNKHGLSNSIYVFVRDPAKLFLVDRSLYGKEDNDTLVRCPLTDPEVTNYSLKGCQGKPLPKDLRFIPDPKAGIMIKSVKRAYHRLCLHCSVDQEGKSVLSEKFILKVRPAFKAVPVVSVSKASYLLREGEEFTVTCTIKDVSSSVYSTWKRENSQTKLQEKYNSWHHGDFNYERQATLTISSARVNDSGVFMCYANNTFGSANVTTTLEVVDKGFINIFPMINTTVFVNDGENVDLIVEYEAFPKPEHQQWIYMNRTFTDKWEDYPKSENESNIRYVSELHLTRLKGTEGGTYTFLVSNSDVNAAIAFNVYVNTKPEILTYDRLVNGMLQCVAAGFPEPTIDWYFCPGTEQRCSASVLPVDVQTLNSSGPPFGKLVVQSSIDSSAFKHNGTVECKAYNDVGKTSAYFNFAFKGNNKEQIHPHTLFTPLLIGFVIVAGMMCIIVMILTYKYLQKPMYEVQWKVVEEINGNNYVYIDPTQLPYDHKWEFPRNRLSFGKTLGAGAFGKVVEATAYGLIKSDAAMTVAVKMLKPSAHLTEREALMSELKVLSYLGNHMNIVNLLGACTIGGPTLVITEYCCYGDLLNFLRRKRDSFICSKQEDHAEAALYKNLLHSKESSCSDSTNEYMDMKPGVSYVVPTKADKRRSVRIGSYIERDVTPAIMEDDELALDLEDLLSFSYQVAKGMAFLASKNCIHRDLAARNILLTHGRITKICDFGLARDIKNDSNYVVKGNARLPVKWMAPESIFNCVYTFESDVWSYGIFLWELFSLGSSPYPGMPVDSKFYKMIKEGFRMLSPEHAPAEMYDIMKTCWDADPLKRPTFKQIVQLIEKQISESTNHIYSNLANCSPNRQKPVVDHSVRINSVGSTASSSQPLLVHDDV

[3] = Metabolic stability in human liver microsomes; type: in vitro ADME; conditions: 4-fluoro pendant added to phenyl ring
[4] = Thermodynamic solubility (Analiza Inc.); type: physicochemical; conditions: Water
Description: Experimental data collected by Analiza Inc. Experimental values represent an average of n=1 experiments.

[5] = read-out: GRK2 IC50, Table 1, μM ± SD
[6] = intact protein MS, incubation time not stated
[7] = intact protein MS, 30 min incubation
[8] = read-out: GRK2 IC50, Table 2, μM ± SD

Compound: C#CCNC(=O)c1c(C)[nH]c(/C=C2\C(=O)Nc3ccc(C(=O)N[C@H](C)c4ccccc4)cc32)c1C [Compound 5c, (R,Z)-3-((3,5-dimethyl-4-(prop-2-yn-1-ylcarbamoyl)-1H-pyrrol-2-yl)methylene)-2-oxo-N-(1-phenylethyl)indoline-5-carboxamide]
inhibition at 1 µM (GRK6): 94% | IC50 (bovine GRK2; [5]): 44 ± 40 µM | inhibition of FGFR1/2 (FGFR1/2): 92-98% | inhibition at 1 µM (EGFR): 17% | inhibition of PDGFR (PDGFR): 99-100%

Compound: CC#CC(=O)Nc1c(C)[nH]c(/C=C2\C(=O)Nc3ccc(C(=O)N[C@H](C)c4ccccc4)cc32)c1C [Compound 9a, (R,Z)-3-((4-(but-2-ynamido)-3,5-dimethyl-1H-pyrrol-2-yl)methylene)-2-oxo-N-(1-phenylethyl)indoline-5-carboxamide]
IC50 (bovine GRK2; [5]): 150 ± 30 µM | covalent labelling of GRK5 (GRK5 (Cys474); [6]): did not show any covalent engagement | potency / affinity against GRK5 in words (GRK5 [1]): low μM potency | GRK2/GRK5 (GRK5 [1]; Table 1, ratio of IC50 values): 61 | IC50 (GRK5 [1]; Table 1, μM ± SD): 2.5 ± 0.8 µM

Compound: Cc1[nH]c(/C=C2\C(=O)Nc3ccc(C(=O)N[C@H](C)c4ccc(F)cc4)cc32)c(C)c1NC(=O)CCl [Compound 9j, (R,Z)-3-((4-(2-chloroacetamido)-3,5-dimethyl-1H-pyrrol-2-yl)methylene)-N-(1-(4-fluorophenyl)ethyl)-2-oxoindoline-5-carboxamide]
IC50 (PKA; Table 2, μM ± SD): > 250 µM | IC50 (bovine GRK2; [8]): 4.8 ± 3 µM | increase of stability in HLMs [3]: 1.4 fold | covalent labelling of GRK5 (GRK5 (Cys474); [7]): form a covalent interaction with Cys474; also recorded: fully labels GRK5 | covalent labelling of GRK5 (GRK5 (Cys474); [6]): able to form a covalent interaction | pH After Assay ([4]; solubility assay): 3 | solubility thermodynamic ([4]; thermodynamic from solid, n=1): 90.7 µM and 44.8 µg/mL

Compound: Cc1[nH]c(/C=C2\C(=O)Nc3ccc(C(=O)NCc4ccccc4)cc32)c(C)c1NC(=O)CCl [Compound 9q, (Z)—N-benzyl-3-((4-(2-chloroacetamido)-3,5-dimethyl-1H-pyrrol-2-yl)methylene)-2-oxoindoline-5-carboxamide]
IC50 (PKA; Table 2, μM ± SD): > 250 µM | IC50 (bovine GRK2; [8]): 13 ± 3 µM | covalent labelling of GRK5 (GRK5 (Cys474); intact MS, overnight / 8 hours): partial labelling

More lines, main results first:

inhibition at 1 µM (GRK5 [2]): 93% | inhibition at 1 µM (GRK6): 97% | IC50 (PKA; Table 1, μM ± SD): > 250 µM | IC50 (bovine GRK2; [5]): 12 ± 20 µM | inhibition at 1 µM (EGFR): 17% | inhibition at 1 µM (KIT): 84% | fraction of GRK5 labelled (GRK5 (Cys474); [7]): 50% | selectivity for GRK5 over GRK2 (GRK5 [1]): 1400 fold | GRK2/GRK5 (GRK5 [1]; Table 1, ratio of IC50 values): 1400 | IC50 (GRK5 [1]): 0.0086 µM
Compound: Cc1[nH]c(/C=C2\C(=O)Nc3ccc(C(=O)N[C@H](C)c4ccccc4)cc32)c(C)c1NC(=O)CBr [Compound 9g, (R,Z)-3-((4-(2-bromoacetamido)-3,5-dimethyl-1H-pyrrol-2-yl)methylene)-2-oxo-N-(1-phenylethyl)indoline-5-carboxamide]
inhibition of FGFR1/2 (FGFR1/2): 94-98% | kinome-wide selectivity (kinome): far more selective across the kinome | inhibition of PDGFR (PDGFR): 99% | covalent labelling of GRK5 (GRK5 (Cys474); [6]): able to label GRK5 at Cys474; also recorded: able to form a covalent interaction

IC50 (bovine GRK2): 190 ± 70 µM | covalent labelling of GRK5 (GRK5 (Cys474); intact MS, overnight / 8 hours): partial labelling | GRK2/GRK5 (GRK5 [1]; Table 2, ratio of IC50 values): 15
Compound: Cc1[nH]c(/C=C2\C(=O)Nc3ccc(C(=O)N[C@@H](c4ccccc4)C(C)C)cc32)c(C)c1NC(=O)CCl [Compound 9r, (R,Z)-3-((4-(2-chloroacetamido)-3,5-dimethyl-1H-pyrrol-2-yl)methylene)-N-(2-methyl-1-phenylpropyl)-2-oxoindoline-5-carboxamide]

IC50 (PKA; Table 2, μM ± SD): > 250 µM | covalent labelling of GRK5 (GRK5 (Cys474); intact MS, overnight / 8 hours): completes labelling of GRK5 | GRK2/GRK5 (GRK5 [1]; Table 2, ratio of IC50 values): 260
Compound: Cc1[nH]c(/C=C2\C(=O)Nc3ccc(C(=O)NC(C)(C)c4ccccc4)cc32)c(C)c1NC(=O)CCl [Compound 9s, (Z)-3-((4-(2-chloroacetamido)-3,5-dimethyl-1H-pyrrol-2-yl)methylene)-2-oxo-N-(2-phenylpropan-2-yl)indoline-5-carboxamide]
